In publication PMC10888717, “Identification of Novel Non-Nucleoside Inhibitors of Zika Virus NS5 Protein Targeting MTase Activity” (International Journal of Molecular Sciences, 2024):

Experiments:
[1] = Metabolic stability in human liver microsomes; type: in vitro ADME; conditions: 1 h, 37 °C, three experiments
Procedure: The metabolic stability was investigated by incubating selected compounds with human liver microsomes (HLMs) for 1 h at 37 °C. The percentage of non-metabolized compounds and metabolites was analyzed by HPLC-UV-MS. […] HPLC analysis confirmed the presence of the oxidated metabolites in small percentages.
(§1) For the ADME property determination, an Agilent 1260 Infinity HPLC-DAD interfaced with an Agilent MSD 6130 (Agilent Technologies, Palo Alto, CA, USA) was used. Chromatographic conditions were optimized using a Phenomenex Kinetex C18-100 Å column (150 × 4.6 mm) with 5 µm particle size and gradient elution with a binary solution (eluent A: H2O; eluent B: ACN; both eluents were acidified with formic acid 0.1% v/v) at room temperature. The LC analyses started with 5% of B (from t = 0 to t = 1 min), then B was increased to 95% (from t = 1 to t = 10 min) and then kept at 95% (from t = 10 to t = 19 min) and finally returned to initial conditions in 1.0 min. The flow rate was 0.6 mL/min and the injection volume was 10 µL.
The test was performed as previously reported with minor modifications. Each compound was dissolved in DMSO and phosphate buffer (0.025 M, pH 7.4), and human liver microsomes (0.2 mg/mL) and a NADPH-regenerating system in MgCl2 48 mM were added to a final volume of 500 µL. This solution was incubated for 1 h at 37 °C and then the reaction was stopped and quenched using 1 mL of ACN. The reaction mixtures were then centrifuged (4000 rpm for 10 min) and the supernatant was taken, dried under nitrogen flow, and then resuspended in 100 µL of methanol. The parent drug and metabolites were subsequently determined using the chromatographic conditions described above. The percentage of non-metabolized compounds was calculated by comparison with reference solutions. The determination of metabolic stability for each compound was performed in three independent experiments.

[2] = Stability test in human plasma; type: in vitro ADME; conditions: pH 7.4, 37 °C, up to 24 h, read-out: Plasma Stab. (T1/2, h ± SD) (converted)
Procedure: Finally, compounds were incubated in human plasma at 37 °C for 24 h. […] Taken together, stability studies confirmed that the series is suitable for further development.
as §1
A stock solution of the target compound in DMSO (2 mM) was incubated in a test tube with pooled human plasma (55.7 mg protein/mL) and HEPES buffer (25 mM, 140 mM NaCl pH 7.4) up to a final volume of 1.0 mL. The mixture was incubated at 37 °C, and at set time points (0.0, 0.5, 1, 4, 8, 24 h), samples of 50 µL were taken, mixed with 400 µL of ACN to stop the reaction of plasmatic esterases, and centrifuged at 5000 rpm for 15 min. The supernatant was removed and analyzed using the LC-UV/MS method previously described. The half-life (t½) was calculated according to the following equation: t½=ln 2/k where k represents the substrate elimination constant. For each compound, the determination was performed in three independent experiments.

## CN1C(=O)c2ccc(NC(=O)c3cc4cccc(Cl)c4s3)cc2C1=O [Compound 17]
[1]
  HLM Stab.% ± SD (percentage of non-metabolized compound): 96.39 ± 0.11%
[2]
  half-life: > 24 h
